Data from patent US4888287A, “Rapid differentiation of fungi from bacteria using polyene antibiotics” (Eastman Kodak Company, priority 1986, dated 1989).

Experiments:
E. coli = test: Inhibition of RIND IX reduction by E. coli (gram-negative) in solution (Example 1, Table II); assay type: cell-based, Escherichia coli (ATCC 25922)
Method: (§1) gram-negative microorganism Escherichia coli (ATCC 25922), gram-positive microorganism Staphylococcus aureus (ATCC 25923), and Candida albicans yeast cells (ATCC 14053), brain heart infusion broth (BHI) and Sabaroud's dextrose broth (SAB) from Difco Laboratories (Detroit, Michigan, U.S.A.), and Aspergillus flavus (ATCC 20047), a mold from American Type Culture Collection (Rockville, Maryland, U.S.A.).
(§2) E. coli and S. aureus were grown overnight in BHI broth at 37° C. C. albicans and A. flavus were grown overnight at 25° C. in SAB broth with agitation. […]
(§3) Test solutions were prepared by adding in order: 1.2 ml of HEPES buffer, 50 μl glucose solution, 1.5 ml of RIND IX dispersion, 100 μl of antibiotic solution, 100 μl of cell suspension and 25 μl of ETA solution. […] Optical density readings (OD) were measured at 635 nm at 0 minutes and after incubation at 37° C. for 30 minutes for test and Control solutions, and the change in density (ΔOD) was determined. Table II below lists the results, expressed as corrected percent inhibition of the reduction of the RIND compound. The corrected percent inhibition is calculated by dividing the difference between the ΔOD obtained from the Control without antibiotic and the ΔOD of the test solution, by ΔOD of the Control without antibiotic. All readings were corrected by subtracting readings of the appropriate background control. […]

C. albicans = test: Inhibition of RIND IX reduction by C. albicans (yeast) in solution (Example 1, Table II); assay type: cell-based, Candida albicans (ATCC 14053)
Method: E. coli and S. aureus were grown overnight in BHI broth at 37° C. C. albicans and A. flavus were grown overnight at 25° C. in SAB broth with agitation. The cells were harvested by centrifugation, washed and resuspended in 0.05 molar N-2-hydroxyethylpiperazine-N'-2-ethanesulfonic acid (HEPES) buffer (pH 7.8).
Dispersions containing RIND compounds were prepared by dissolving, for example, RIND VII from Table I above in N,N-dimethylformamide (DMF) at 16 mg compound per ml of solvent. An aliquot (250 μl) of the resulting solution was added to 500 μl of TRITON X-100 surfactant. This mixture was then added dropwise with stirring to 25 ml of 0.05 molar HEPES buffer.
The following materials were used in this example: stock solutions of RIND IX compound dispersion prepared as described above, glucose (10% in water), trimethyl-1,4-benzoquinone ETA (1.5 mg/ml methanol), and the antibiotics (25 mg/ml in dimethyl sulfoxide, except that filipin was 12.5 mg/ml of solvent). Bacteria and yeast were grown as described above. The approximate final cell concentrations in the assay mixture were 4.2×10^8 cells/ml of E. coli, 7.1×10^8 cells/ml of S. aureus, and 7×10^5 of C. albicans.
Test solutions were prepared by adding in order: 1.2 ml of HEPES buffer, 50 μl glucose solution, 1.5 ml of RIND IX dispersion, 100 μl of antibiotic solution, 100 μl of cell suspension and 25 μl of ETA solution. Cell control solutions contained all reagents except antibiotics. Background controls consisted of both buffer and solution controls. The buffer control contained all reagents except antibiotics and cells. The solution control contained all reagents except cells. Optical density readings (OD) were measured at 635 nm at 0 minutes and after incubation at 37° C. for 30 minutes for test and Control solutions, and the change in density (ΔOD) was determined. […] The corrected percent inhibition is calculated by dividing the difference between the ΔOD obtained from the Control without antibiotic and the ΔOD of the test solution, by ΔOD of the Control without antibiotic. All readings were corrected by subtracting readings of the appropriate background control.
Solutions containing 2.9 ml HEPES, 50 μl of the antibiotic solution, and 100 μl cell solution were incubated at 37° C. for 30 minutes, centrifuged for 10 minutes and decanted. The resulting pellet was then treated with 1.4 ml HEPES, 50 μl glucose solution, 1.5 ml RIND IX dispersion and 25 μl ETA solution, mixed well and the optical densities recorded as described above in Method 1. The corrected percent inhibition data was calculated as described in Method 1 above.

S. aureus = test: Inhibition of RIND IX reduction by S. aureus (gram-positive) in solution (Example 1, Table II); assay type: cell-based, Staphylococcus aureus (ATCC 25923); conditions: Method 1, 635 nm, 37° C., 30 min
Method: as §1, §2, §3

[1] = Method 1, 635 nm, 37° C., 30 min
[2] = Method 2, preincubation for 1 hour, 635 nm

Molecule | Corrected % Inhibition (E. coli; [1]) [%] | Corrected % Inhibition (C. albicans; [1]) [%] | Corrected % Inhibition (S. aureus) [%] | Corrected % Inhibition (C. albicans; [2]) [%] | Corrected % Inhibition (E. coli; [2]) [%]
C[C@@H]1[C@H](O)[C@@H](C)/C=C/C=C/C=C/C=C/C=C/C=C/C=C/[C@H](O[C@@H]2O[C@H](C)[C@@H](O)[C@H](N)[C@@H]2O)C[C@@H]2O[C@](O)(C[C@@H](O)C[C@@H](O)[C@H](O)CC[C@@H](O)C[C@@H](O)CC(=O)O[C@H]1C)C[C@H](O)[C@H]2C(=O)O [Amphotericin B, amphotericin B] | 15.1 |  |  |  | 
C[C@@H]1C/C=C/C=C/C=C/C=C/[C@H](O[C@@H]2O[C@H](C)[C@@H](O)[C@H](N)[C@@H]2O)C[C@@H]2O[C@](O)(C[C@@H](O)C[C@H]3O[C@@H]3/C=C/C(=O)O1)C[C@H](O)[C@H]2C(=O)O [Natamycin, natamycin] |  | 77.9 | 0.3 |  | 
C[C@@H]1[C@H](O)[C@@H](C)/C=C/C=C/CC/C=C/C=C/C=C/C=C/C(O[C@H]2O[C@H](C)[C@@H](O)[C@H](N)[C@@H]2O)CC2O[C@](O)(CC(O)C(O)CCC(O)CC(O)CC(O)CC(=O)O[C@H]1C)CC(O)C2C(=O)O (stereo partly shown) [Nystatin, nystatin] |  | 76.2 | 9.8 |  | 
candicidin |  |  |  | 62.8 | 12.5
